tested on: MV4:11 human cancer cell lines; assay: Cellular viability / anti-proliferative activity, CellTiter-Glo, 5 day protocol; assay type: cell-based; conditions: Homo sapiens, MV4-11, 120 h, MV4:11 cells; 5 day incubation; CellTiter-Glo; mean of minimum two replicates; read-out: GI50 on cellular proliferation of MV4:11 human cancer cell lines
How it was run: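 Compounds were tested over 22 two-fold dilutions starting at 30 μM in 0.3% DMSO, with 200 cells per well (7200 cells/mL). Viability was measured by CellTiter-Glo luminescence at day 5.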

Compound	GI50
Cc1ccc2[nH]ncc2c1-c1cc(CN2CCc3c(cc(Cn4ccnc4C)cc3-c3cn(C)nc3C(F)(F)F)C2=O)cc(OC(F)(F)F)c1 [Example 220, 7-((2-Methyl-1H-imidazol-1-yl)methyl)-2-(3-(5-methyl-1H-indazol-4-yl)-5-(trifluoromethoxy)benzyl)-5-(1-methyl-3-(trifluoromethyl)-1H-pyrazol-4-yl)-3,4-dihydroisoquinolin-1(2H)-one]	1940 nM
Cc1cccc(CN2CCc3c(cc(Cn4ccnc4C)cc3-c3cn(C)nc3C(F)(F)F)C2=O)c1 [Example 209, 7-((2-Methyl-1H-imidazol-1-yl)methyl)-5-(1-methyl-3-(trifluoromethyl)-1H-pyrazol-4-yl)-2-(3-methylbenzyl)-3,4-dihydroisoquinolin-1(2H)-one]	85 nM
Cc1nccn1Cc1cc2c(c(-c3cn(C)nc3C(F)(F)F)c1)CCN(Cc1cccc(Cl)c1)C2=O [Example 226, 2-(3-Chlorobenzyl)-7-((2-methyl-1H-imidazol-1-yl)methyl)-5-(1-methyl-3-(trifluoromethyl)-1H-pyrazol-4-yl)-3,4-dihydroisoquinolin-1(2H)-one]	950 nM
CCn1cc(-c2cc(Cn3ccoc3=N)cc3c2CCN(Cc2cc(OC)ccn2)C3=O)cn1 [Example 87, 5-(1-Ethyl-1H-pyrazol-4-yl)-7-((2-iminooxazol-3(2H)-yl)methyl)-2-((4-methoxypyridin-2-yl)methyl)-3,4-dihydroisoquinolin-1(2H)-one]	837 nM
CCc1ccnc(CN2CCc3c(cc(Cn4ccnc4C)cc3-c3cn(CC)nc3C(F)(F)F)C2=O)c1 [Example 21, 5-(1-Ethyl-3-(trifluoromethyl)-1H-pyrazol-4-yl)-2-((4-ethylpyridin-2-yl)methyl)-7-((2-methyl-1H-imidazol-1-yl)methyl)-3,4-dihydroisoquinolin-1(2H)-one]	< 50 nM
COc1ccnc(CN2CCc3c(cc(CN4CCN(C5CC5)C4=N)cc3-c3cn(C)nc3C)C2=O)c1 [Example 46, 7-((3-Cyclopropyl-2-iminoimidazolidin-1-yl)methyl)-5-(1,3-dimethyl-1H-pyrazol-4-yl)-2-((4-methoxypyridin-2-yl)methyl)-3,4-dihydroisoquinolin-1(2H)-one]	449 nM
Cc1cc(CN2CCc3c(cc(Cn4ccnc4C)cc3-c3cn(C)nc3C(F)(F)F)C2=O)cnc1C [Example 241, 2-((5,6-Dimethylpyridin-3-yl)methyl)-7-((2-methyl-1H-imidazol-1-yl)methyl)-5-(1-methyl-3-(trifluoromethyl)-1H-pyrazol-4-yl)-3,4-dihydroisoquinolin-1(2H)-one]	< 50 nM
CCn1cc(-c2cc(Cn3ccnc3)cc3c2CCN([C@@H](C)c2cc(OC)ccn2)C3=O)c(C(F)(F)F)n1 [Example 160, (S)-7-((1H-Imidazol-1-yl)methyl)-5-(1-ethyl-3-(trifluoromethyl)-1H-pyrazol-4-yl)-2-(1-(4-methoxypyridin-2-yl)ethyl)-3,4-dihydroisoquinolin-1(2H)-one]	< 50 nM
CCn1cc(-c2cc(Cn3ccnc3)cc3c2CCN([C@H](c2cc(OC)ccn2)C2CC2)C3=O)c(C(F)(F)F)n1 [Example 212, (S)-7-((1H-Imidazol-1-yl)methyl)-2-(cyclopropyl(4-methoxypyridin-2-yl)methyl)-5-(1-ethyl-3-(trifluoromethyl)-1H-pyrazol-4-yl)-3,4-dihydroisoquinolin-1(2H)-one]	< 50 nM
Cc1nccn1Cc1cc2c(c(-c3cn(C)nc3C(F)(F)F)c1)CCN(Cc1cccc(-c3ccsc3)c1)C2=O [Example 231, 7-((2-Methyl-1H-imidazol-1-yl)methyl)-5-(1-methyl-3-(trifluoromethyl)-1H-pyrazol-4-yl)-2-(3-(thiophen-3-yl)benzyl)-3,4-dihydroisoquinolin-1(2H)-one]	550 nM
COc1ccnc(CN2CCc3c(cc(CNC(=N)C(F)(F)F)cc3-c3cn(C)nc3C(F)(F)F)C2=O)c1 [Example 120, 2,2,2-Trifluoro-N-((2-((4-methoxypyridin-2-yl)methyl)-5-(1-methyl-3-(trifluoromethyl)-1H-pyrazol-4-yl)-1-oxo-1,2,3,4-tetrahydroisoquinolin-7-yl)methyl)acetimidamide]	> 938 nM

— US11999716B2, “WDR5 inhibitors and modulators” (priority 2018, dated 2024)
